Values quoted from earlier work as cited in patent publication EP0529484A1, “Antitussive and expectorant composition” (ND NEW DRUG DEVELOPMENT INSTITUTE INC., priority 1991, dated 1993).

For C[N+]1(CCF)[C@@H]2CC[C@H]1C[C@@H](OC(=O)C(O)(c1ccccc1)c1ccccc1)C2 (stereo partly drawn) [flutropium bromide, 8(r)-8-(2-fluoroethyl)-3α-hydroxy-1αH,5αH-tropanium bromide, benzilate hydrate], the “LD₅₀ through oral administration” value (mouse) is given as 930 mg/kg and the “LD₅₀ through oral administration” value (rat) is given as 2,900 mg/kg.
